Test results as given in patent publication US12043602B2, “Fendiline derivatives” (The Board of Regents of the University of Texas System, priority 2019, dated 2024).

Columns and labels:
mGFP-K-RASG12V = mGFP-K-RASG12V (Homo sapiens (Human), UniProt P01116, G12V); test: K-Ras mislocalization assay (confocal microscopy, Manders coefficient); assay type: cell-based; set-up: key to Emax: Manders coefficient: fraction of mCherry-CAAX co-localizing with GFP-K-Ras; conditions: MDCK cells; for Emax: maximal effect, Manders coefficient, 48 h; for IC50: 48 h treatment, read-out: IC50 (μM), KRASG12V mislocalization
In short: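 MDCK cells stably co-expressing mGFP-K-RASG12V and mCherry-CAAX (endomembrane marker) treated with compound or 0.1% DMSO for 48 h, fixed in 4% paraformaldehyde, imaged by confocal microscopy. Mislocalization quantified as the fraction of mCherry-CAAX co-localizing with mGFP-K-RASG12V (Manders coefficient) after 8-bit thresholding.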

[1] = test system: MDCK cells co-expressing GFP-K-RASG12V and mCherry-CAAX; test: Cytotoxicity in mislocalization screen (death of all cells in well); conditions: drug caused death of all cells in well at 30 μM

Structure (SMILES) | Emax (mGFP-K-RASG12V) | IC50 (mGFP-K-RASG12V) | Cytotoxic at 30 μM [1]
COC(=O)c1cn(CCN(CC=C(c2ccccc2)c2ccccc2)[C@H](C)c2ccc(F)cc2)nn1 [PW307, methyl (R)-1-(2-((3,3-diphenylallyl)(1-(4-fluorophenyl)ethyl)amino)ethyl)-1H-1,2,3-triazole-4-carboxylate] | 0.628 | – | No
C[C@H](c1ccc(F)cc1)N(CC=C(c1ccccc1)c1ccccc1)CCn1cc(-c2ccc(F)cc2)nn1 [PW308, (R)-N-(2-(4-(4-fluorophenyl)-1H-1,2,3-triazol-1-yl)ethyl)-N-(1-(4-fluorophenyl)ethyl)-3,3-diphenylprop-2-en-1-amine] | 0.721 | 3.32 µM | No
COc1ccc(C(=CCN(CCN2CCCC2)[C@H](C)c2ccc(F)cc2)c2ccc(OC)cc2)cc1 [PW356, (R)-N-(1-(4-Fluorophenyl)ethyl)-3,3-bis(4-methoxyphenyl)-N-(2-(pyrrolidin-1-yl)ethyl)prop-2-en-1-amine] | 0.641 | 2.44 µM | Yes at 10 uM
COc1cccc(C(=CCN(CCN2CCCC2)[C@H](C)c2ccc(F)cc2)c2cccc(OC)c2)c1 [PW357, (R)-N-(1-(4-Fluorophenyl)ethyl)-3,3-bis(3-methoxyphenyl)-N-(2-(pyrrolidin-1-yl)ethyl)prop-2-en-1-amine] | 0.497 | – | Yes at 10 uM
C[C@H](c1ccc(F)cc1)N(C/C=C(/c1ccccc1)c1ccc(OC(F)(F)F)cc1)CCN1CCCC1 [PW361, (R,Z)-N-(1-(4-fluorophenyl)ethyl)-3-phenyl-N-(2-(pyrrolidin-1-yl)ethyl)-3-(4-(trifluoromethoxy)phenyl)prop-2-en-1-amine] | 0.606 | 0.725 µM | Yes at 3 uM
COc1ccc(/C(=C\CN(CCN2CCCC2)[C@H](C)c2ccc(F)cc2)c2ccc(F)cc2)cc1 [PW454, (R,E)-3-(4-fluorophenyl)-N-(1-(4-fluorophenyl)ethyl)-3-(4-methoxyphenyl)-N-(2-(pyrrolidin-1-yl)ethyl)prop-2-en-1-amine] | 0.771 | 0.319 µM | Yes at 10 uM

The next lines start with results.

Emax (mGFP-K-RASG12V) | IC50 (mGFP-K-RASG12V) | Structure (SMILES) | Cytotoxic at 30 μM [1]
0.587 | – | C[C@H](c1ccc(F)cc1)N(CCN1CCCC1)C(=O)Nc1ccc(C(F)(F)F)cc1 [PW321, (R)-1-(1-(4-Fluorophenyl)ethyl)-1-(2-(pyrrolidin-1-yl)ethyl)-3-(4-(trifluoromethyl)phenyl)urea] | No
0.662 | – | C[C@H](c1ccc(F)cc1)N(CCN1CCCC1)C(=O)c1ccc(C(F)(F)F)cc1 [PW322, (R)-N-(1-(4-Fluorophenyl)ethyl)-N-(2-(pyrrolidin-1-yl)ethyl)-4-(trifluoromethyl)benzamide] | No
0.767 | 2.9 µM | C[C@H](c1ccc(F)cc1)N(CCN1CCCC1)C(=O)c1cc(-c2ccccc2)ccn1 [PW324, (R)-N-(1-(4-Fluorophenyl)ethyl)-4-phenyl-N-(2-(pyrrolidin-1-yl)ethyl)picolinamide] | No
0.808 | 7.8 µM | Cc1ccc(C(=CCN(CCN2CCCC2)[C@H](C)c2ccc(F)cc2)c2ccc(C)cc2)cc1 [PW327, (R)-N-(1-(4-Fluorophenyl)ethyl)-N-(2-(pyrrolidin-1-yl)ethyl)-3,3-di-p-tolylprop-2-en-1-amine] | Yes
0.938 | 1.02 µM | COc1cc(C(=CCN(CCN2CCCC2)[C@H](C)c2ccc(F)cc2)c2cc(OC)c(OC)c(OC)c2)cc(OC)c1OC [PW358, (R)-N-(1-(4-Fluorophenyl)ethyl)-N-(2-(pyrrolidin-1-yl)ethyl)-3,3-bis(3,4,5-trimethoxyphenyl)prop-2-en-1-amine] | Yes
